These compounds were tested against T1, renin (Homo sapiens, UniProt P00797) (assay: in vitro renin inhibitory activity, radioimmunoassay for angiotensin I). Settings: renin incubated two hours at 37° with substrate angiotensinogen; angiotensin I by radioimmunoassay; molar concentration causing 50% inhibition.
T1 sequence (P00797 67-406): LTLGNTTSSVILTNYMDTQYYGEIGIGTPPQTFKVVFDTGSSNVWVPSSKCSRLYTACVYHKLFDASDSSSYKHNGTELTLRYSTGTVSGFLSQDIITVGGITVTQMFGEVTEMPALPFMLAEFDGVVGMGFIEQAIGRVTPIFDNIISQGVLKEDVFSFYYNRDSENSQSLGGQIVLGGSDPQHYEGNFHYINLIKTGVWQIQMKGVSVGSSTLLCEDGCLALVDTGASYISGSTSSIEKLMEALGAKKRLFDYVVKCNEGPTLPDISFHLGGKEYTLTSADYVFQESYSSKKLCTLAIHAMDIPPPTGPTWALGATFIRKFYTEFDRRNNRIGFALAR
Format: biochemical
Method: The effectiveness of the aforementioned compounds is determined by a test for in vitro renin inhibitory activity. This activity is determined by a standard radioimmunoassay for angiotensin I. In this assay the enzyme, renin, incubated for two hours at 37° in the presence of a substrate, angiotensinogen, generates the product, angiotensin I. Test compounds are added to the incubation mixture. Relative activity is reported as the IC50, which is the molar concentration of test compound causing a 50% inhibition of the renin activity.
Work on `C=CC[C@H](NC(=O)[C@H](Cc1ccccc1)NS(=O)(=O)N(C)C)C(=O)N[C@@H](CC(C)C)[C@@H](O)CC(=O)NCC(C)CC` (stereo partly drawn) [MeNSO2 PHEALGSTANHCH2 CH(CH3)CH2 CH3, Me2 NSO2 --PHE--ALG--STA--NHCH2 CH(CH3)CH2 CH3] yielded an IC50 of 7 nM.
Work on `CCC(C)CNC(=O)CC(O)C(CC(C)C)NC(=O)C(Cc1cnc[nH]1)NC(=O)C(Cc1ccccc1)NS(=O)(=O)N(C)C` (stereo not drawn) [Me2 NSO2 PHEHISSTANHCH2 CH(CH3)CH2 CH3, Me2 NSO2 --PHE--HIS--STA--NHCH2 CH(CH3)CH2 CH3] yielded an IC50 of 41 nM.
For “Me2 NSO2 --PHE--PGY--STA--NHCH2 CH(CH3)CH2 CH3 [Me2 NSO2 PHEPGYSTANHCH2 CH(CH3)CH2 CH3]”, the IC50 was 34 nM.
MeNSO2 PHEALGCYSTANHCH2 CH(CH3)CH2 CH3 was tested, and the IC50 was 1.5 nM.
`CCC(C)CNC(=O)CC(O)C(CC(C)C)NC(=O)C(Cc1cnc[nH]1)NC(=O)C(Cc1ccc(OC)cc1)NS(=O)(=O)N(C)C` (stereo not drawn) [Me2 NSO2 TYR(OMe)HISSTANHCH2 CH(CH3)CH2 CH3] was tested, and the IC50 was about 3000 nM.
Work on MeNSO2 PHEPGYCYSTANHCH2 CH(CH3)CH2 CH3 yielded an IC50 of 1.1 nM.

— patent US5288851A, “Renin inhibitors, processes for preparing them, methods for using them, and compositions containing them” (Warner-Lambert Company, priority 1992, dated 1994)
